Laboratory results from ChEMBL document CHEMBL5357020, “Reducing Self-Assembly by Increasing Net Charge: Effect on Biological Activity of Mastoparan C” (ACS Med Chem Lett, 2024).
Active and inactive are the calls of the source. No cut-off for these calls is given here.

Experiments:
Bacillus cereus = test: Antimicrobial activity against Bacillus cereus ATCC 11778 assessed as reduction in microbial growth after 24 hrs by broth microdilution method; format: functional
Staphylococcus aureus = test: Antimicrobial activity against Staphylococcus aureus ATCC 25923 assessed as reduction in microbial growth after 24 hrs by broth microdilution method; format: functional
Salmonella enterica = test: Antimicrobial activity against Salmonella enterica ATCC 13076 assessed as reduction in microbial growth after 24 hrs by broth microdilution method; format: functional
Erythrocyte [1] = test: Hemolytic activity in human RBC assessed as hemolysis at 2 to 128 uM incubated for 30 mins; format: toxicity, cell-based; conditions: 0.5 h, dose 2-128 µM
Erythrocyte [2] = test: Hemolytic activity in human RBC assessed as hemolysis at 32 uM incubated for 30 mins; format: toxicity, cell-based; conditions: 0.5 h
A-427 = test: Anticancer activity against human A-427 cells assessed as inhibition of cell growth incubated for 24 hrs by CCK-8 assay; format: functional, cell-based; conditions: A-427, 24 h
Candida albicans = test: Antifungal activity against Candida albicans ATCC 10231 assessed as reduction in fungal growth after 24 hrs by broth microdilution method; format: functional
NCI-H441 = test: Anticancer activity against human NCI-H441 cells assessed as inhibition of cell growth incubated for 24 hrs by CCK-8 assay; format: functional, cell-based
Enterococcus faecalis = test: Antimicrobial activity against Enterococcus faecalis ATCC 29212 assessed as reduction in microbial growth after 24 hrs by broth microdilution method; format: functional
Escherichia coli = test: Antimicrobial activity against Escherichia coli ATCC 25922 assessed as reduction in microbial growth after 24 hrs by broth microdilution method; format: functional
Listeria monocytogenes = test: Antimicrobial activity against Listeria monocytogenes ATCC 15313 assessed as reduction in microbial growth after 24 hrs by broth microdilution method; format: functional
Pseudomonas aeruginosa = test: Antimicrobial activity against Pseudomonas aeruginosa ATCC 27853 assessed as reduction in microbial growth after 24 hrs by broth microdilution method; format: functional

Row | Compound | MIC (Bacillus cereus) [µM] | MIC (Staphylococcus aureus) [µM] | MIC (Salmonella enterica) [µM] | MIC (Candida albicans) [µM] | MIC (Enterococcus faecalis) [µM] | MIC (Escherichia coli) [µM] | MIC (Listeria monocytogenes) [µM] | MIC (Pseudomonas aeruginosa) [µM] | Activity (Erythrocyte [1]) | Activity (Erythrocyte [2]) | IC50 (A-427) [µM] | Activity (NCI-H441)
1 | H-LNLKKLLAVAKKIL-NH2 | 16 | 64 | 64 | 32 | 8 | 8 | 8 | 128 | Non-Toxic | – | 5.1 | Active
2 | O=C(N[C@H](CO)[C@H](O)c1ccc([N+](=O)[O-])cc1)C(Cl)Cl [CHLORAMPHENICOL] | 8 | 32 | 8 | > 128 | 64 | 8 | 64 | > 128 | – | – | – | –

Continued, in another order:

Row | MIC (Bacillus cereus) [µM] | MIC (Staphylococcus aureus) [µM] | MIC (Salmonella enterica) [µM] | MIC (Candida albicans) [µM] | MIC (Enterococcus faecalis) [µM] | MIC (Escherichia coli) [µM] | MIC (Listeria monocytogenes) [µM] | MIC (Pseudomonas aeruginosa) [µM] | Compound | Activity (Erythrocyte [1]) | Activity (Erythrocyte [2]) | IC50 (A-427) [µM] | Activity (NCI-H441)
3 | 8 | 32 | 64 | 16 | 4 | 8 | 4 | 64 | H-LNLKALLKVAKKIL-NH2 | Non-Toxic | Toxic | 7 | Active
4 | 16 | 32 | 32 | 16 | 4 | 8 | 4 | 64 | H-LNLKKLLKVAKKIL-NH2 | Non-Toxic | – | – | –
5 | 64 | 32 | 16 | > 128 | > 128 | 32 | 32 | > 128 | NC[C@H]1O[C@H](O[C@H]2[C@H](O)[C@@H](O[C@H]3O[C@H](CO)[C@@H](O)[C@H](N)[C@H]3O)[C@H](N)C[C@@H]2N)[C@H](O)[C@@H](O)[C@@H]1O [KANAMYCIN] | – | – | – | –
6 | 4 | 32 | 32 | 8 | 4 | 8 | 8 | 64 | H-LNLKALLAVAKKIL-NH2 | Non-Toxic | Toxic | – | –
